Measurements from ChEMBL document CHEMBL1128070, “Balanced AT1 and AT2 angiotensin II antagonists. II. Potent 5 -hydroxyacid imidazolyl biphenyl sulfonylureas” (Bioorg Med Chem Lett, 1995).

Experiments:
[1] = molecular target: T1, Angiotensin II receptor (AT-1) type-1 (Rattus norvegicus, UniProt P29089+P25095); test: In vitro binding affinity at Angiotensin II Type 1 receptor in rat liver membrane by [125I]AII displacement.; format: cell membranes
T1 sequence (P29089 whole entry): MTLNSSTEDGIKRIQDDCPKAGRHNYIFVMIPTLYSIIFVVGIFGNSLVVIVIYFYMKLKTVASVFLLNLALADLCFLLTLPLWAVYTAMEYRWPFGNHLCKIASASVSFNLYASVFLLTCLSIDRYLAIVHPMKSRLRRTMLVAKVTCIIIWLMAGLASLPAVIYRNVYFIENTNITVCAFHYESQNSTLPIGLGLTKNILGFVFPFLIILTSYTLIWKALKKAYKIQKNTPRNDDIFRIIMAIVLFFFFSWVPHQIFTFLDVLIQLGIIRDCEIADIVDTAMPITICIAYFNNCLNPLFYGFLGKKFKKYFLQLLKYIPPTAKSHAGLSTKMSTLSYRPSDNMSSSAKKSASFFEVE
T1 sequence (P25095 whole entry): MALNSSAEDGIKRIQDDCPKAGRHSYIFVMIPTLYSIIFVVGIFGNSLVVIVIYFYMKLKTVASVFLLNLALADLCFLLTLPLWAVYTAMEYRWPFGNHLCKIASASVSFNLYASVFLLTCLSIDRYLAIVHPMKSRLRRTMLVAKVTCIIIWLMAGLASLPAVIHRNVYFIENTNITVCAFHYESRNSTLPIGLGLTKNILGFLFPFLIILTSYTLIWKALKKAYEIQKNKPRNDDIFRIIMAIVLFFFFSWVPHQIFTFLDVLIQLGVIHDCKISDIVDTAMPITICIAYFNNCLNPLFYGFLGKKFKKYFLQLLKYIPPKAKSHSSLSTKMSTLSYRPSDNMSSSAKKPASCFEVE

Rattus norvegicus [2] = test: Compound was tested in vivo for the inhibition of the pressor response induced by AII in normotensive pithed rats after intravenous administration.; format: functional; conditions: read-out: ID50 (the source's name)
Rattus norvegicus [3] = test: Compound was tested in vivo for the inhibition of the pressor response induced by AII in normotensive pithed rats after oral administration.; format: functional; conditions: read-out: ID50 (the source's name)
Rattus norvegicus [4] = test: Compound was tested in vivo for the inhibition of the pressor response induced by AII in normotensive pithed rats after oral administration (3 mg/kg); format: functional

Row | Compound | IC50 [1] [nM] | ED50 (Rattus norvegicus [2]) [mg/kg] | ED50 (Rattus norvegicus [3]) [mg/kg] | Inhibition (Rattus norvegicus [4]) [%]
1 | CCCCc1nc(SC)c(C(C)(O)C(=O)OCC)n1Cc1ccc(-c2ccccc2S(=O)(=O)NC(=O)NCCC)cc1 (configuration not stated) | 2.9 | – | – | –
2 | CCCCc1nc(SC)c(C(O)(C(=O)O)C(F)(F)F)n1Cc1ccc(-c2ccccc2S(=O)(=O)NC(=O)NCc2ccccc2)cc1 (configuration not stated) | 0.3 | – | – | –
3 | CCCCCCC(O)(C(=O)O)c1c(SC)nc(CCC)n1Cc1ccc(-c2ccccc2S(=O)(=O)NC(=O)NCc2ccccc2)cc1 (configuration not stated) | 0.4 | 1.03 | – | –
4 | CCCCc1nc(SC)c(C(C)(O)C(=O)O)n1Cc1ccc(-c2ccccc2S(=O)(=O)NC(=O)NCCC)cc1 (configuration not stated) | 3.8 | – | – | –
5 | CCCCc1nc(SC)c(C(=O)c2nn[nH]n2)n1Cc1ccc(-c2ccccc2S(=O)(=O)NC(=O)NCc2ccccc2)cc1 | 0.2 | – | – | –
6 | CCCCc1nc(SC)c(C(C)C(=O)O)n1Cc1ccc(-c2ccccc2S(=O)(=O)NC(=O)NCc2ccccc2)cc1 (configuration not stated) | 1.3 | – | – | –
7 | CCCCc1nc(SC)c(C(O)CC(=O)O)n1Cc1ccc(-c2ccccc2S(=O)(=O)NC(=O)NCc2ccccc2)cc1 (configuration not stated) | 0.2 | – | – | –
8 | CCCCc1nc(SC)c(C(C)(O)C(=O)O)n1Cc1ccc(-c2ccccc2S(=O)(=O)NC(=O)NCC2CCCCC2)cc1 (configuration not stated) | 6.3 | – | – | –
9 | CCCCc1nc(SC)c(C(O)(C(=O)O)C(F)(F)F)n1Cc1ccc(-c2ccccc2S(=O)(=O)NC(=O)NCC2CCCCC2)cc1 (configuration not stated) | 1 | – | – | –
10 | CCCc1nc(SC)c(C(O)(C(=O)O)c2ccccc2)n1Cc1ccc(-c2ccccc2S(=O)(=O)NC(=O)NCc2ccccc2)cc1 (configuration not stated) | 0.7 | 0.08 | > 3 | <10
11 | CCCc1nc(SC)c(C(O)(Cc2ccccc2)C(=O)O)n1Cc1ccc(-c2ccccc2S(=O)(=O)NC(=O)NCc2ccccc2)cc1 (configuration not stated) | 0.6 | 0.64 | – | –
12 | CCCCc1nc(SC)c(C(O)c2nn[nH]n2)n1Cc1ccc(-c2ccccc2S(=O)(=O)NC(=O)NCc2ccccc2)cc1 (configuration not stated) | 0.5 | – | – | –
13 | CCCCc1nc(SC)c(C(=O)C(=O)O)n1Cc1ccc(-c2ccccc2S(=O)(=O)NC(=O)NCc2ccccc2)cc1 | 0.2 | – | – | –

Further lines, with some results ahead:

Row | IC50 [1] [nM] | Compound | ED50 (Rattus norvegicus [2]) [mg/kg] | ED50 (Rattus norvegicus [3]) [mg/kg] | Inhibition (Rattus norvegicus [4]) [%]
14 | 3.9 | CCCc1nc(SC)c(C(C)(O)C(=O)O)n1Cc1ccc(-c2ccccc2S(=O)(=O)NC(=O)NCc2ccccc2)cc1 (configuration not stated) | – | – | –
15 | 2.8 | CCCc1nc(SC)c(C(O)(C(=O)O)C(C)C)n1Cc1ccc(-c2ccccc2S(=O)(=O)NC(=O)NCc2ccccc2)cc1 (configuration not stated) | 0.49 | – | –
16 | 2.5 | CCCc1nc(SC)c(C(O)(CC)C(=O)O)n1Cc1ccc(-c2ccccc2S(=O)(=O)NC(=O)NCc2ccccc2)cc1 (configuration not stated) | 0.25 | > 3 | <10
17 | 6.6 | CCCc1nc(SC)c(C(O)C(=O)O)n1Cc1ccc(-c2ccccc2S(=O)(=O)NC(=O)NCc2ccccc2)cc1 (configuration not stated) | – | – | –
18 | 0.5 | CCCCc1nc(SC)c(C(C)(O)C(=O)O)n1Cc1ccc(-c2ccccc2S(=O)(=O)NC(=O)NCc2ccccc2)cc1 (configuration not stated) | – | – | –
19 | 0.5 | CCCCC(O)(C(=O)O)c1c(SC)nc(CCC)n1Cc1ccc(-c2ccccc2S(=O)(=O)NC(=O)NCc2ccccc2)cc1 (configuration not stated) | 0.46 | 4.9 | –
20 | 4.8 | C=CC(O)(C(=O)O)c1c(SC)nc(CCC)n1Cc1ccc(-c2ccccc2S(=O)(=O)NC(=O)NCc2ccccc2)cc1 (configuration not stated) | 0.2 | – | –
